Reference: patent publication US11634417B2 (Array BioPharma Inc., priority 2019, dated 2023)
Like-named read-outs stand apart in the source and are kept apart here.

How the values were obtained:
full-length SHP2 = molecular target: T1, full-length SHP2 (Homo sapiens, UniProt Q06124); experiment: SHP2 enzymatic assay (fluorescence intensity kinetic assay, DiFMUP hydrolysis); format: biochemical; settings: 1 nM His6-tagged SHP2(2-527), 1 μM activating peptide, 50 μM DiFMUP; single assay or mean of multiple assays; read-out: Biological Example 1 IC50
T1 construct: 1 nM full-length SHP2 (His6-tagged SHP2(2-527), recombinantly expressed in E. coli and purified in-house); His6; made in house; host or cells: E. coli
T1 sequence (Q06124 2-527): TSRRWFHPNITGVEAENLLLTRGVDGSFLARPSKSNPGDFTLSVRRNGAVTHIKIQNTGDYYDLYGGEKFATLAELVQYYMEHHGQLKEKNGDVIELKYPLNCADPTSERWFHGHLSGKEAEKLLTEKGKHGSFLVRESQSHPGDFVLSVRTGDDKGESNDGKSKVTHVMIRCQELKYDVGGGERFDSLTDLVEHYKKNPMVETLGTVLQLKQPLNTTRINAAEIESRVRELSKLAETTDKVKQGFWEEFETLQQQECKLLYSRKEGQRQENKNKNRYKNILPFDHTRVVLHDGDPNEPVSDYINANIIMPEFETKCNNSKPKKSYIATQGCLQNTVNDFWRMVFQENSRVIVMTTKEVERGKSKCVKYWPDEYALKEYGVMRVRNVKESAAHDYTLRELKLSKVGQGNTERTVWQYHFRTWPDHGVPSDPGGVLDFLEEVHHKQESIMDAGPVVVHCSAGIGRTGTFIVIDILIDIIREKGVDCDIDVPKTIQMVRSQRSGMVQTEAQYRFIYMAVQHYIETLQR
Experimental: A fluorescence intensity kinetic assay was configured for full-length SHP2 that monitors the amount of 6,8-difluoro-7-hydroxy-4-methylcoumarin (“DiFMU”) formed upon hydrolysis of 6,8-difluoro-4-methylumbelliferyl phosphate (“DiFMUP”) by SHP2. […] Low control wells lacked enzyme. The assays were initiated by the addition of a mixture of SHP2 and the activating peptide, and following a 15 second mix on an orbital shaker, were read in kinetic mode for 15 minutes (30 seconds/cycle) at ambient temperature on a PerkinElmer EnVision microplate reader (kEx=355 nm, kEm=460 nm). Initial velocities (slopes of the tangents at t=0) were estimated from exponential fits to the slightly nonlinear progress curves and then were converted to percent of control (“POC”) using the following equation:
[formula] • Where: xmax Average Uninhibited Controls • Xmin Average Background A 4-parameter logistic model was the fit to the POC data for each compound. From that fit, the IC50 was estimated and is defined as the concentration of compound at which the curve crosses 50 POC.

[1] = tested on: ERK1/2 (Thr202/Tyr204) phosphorylation in KYSE520 cells; experiment: Cellular Phospho-p44/42 MAPK (Erk1/2) (Thr202/Tyr204) assay, In-Cell Western; format: cell-based; settings: Homo sapiens
Experimental: Inhibition of ERK1/2 (Thr202/Tyr204) phosphorylation was determined by the following cellular assay, which comprises incubating cells with a compound for 1 hour and quantifying pERK signal by In-Cell Western on fixed cells and normalizing to GAPDH signal. KYSE520 cells were obtained from DSMZ and grown in RPMI supplemented with 10% fetal bovine serum, penicillin/streptomycin, 2 mM L-alanyl-L-glutamine dipeptide in 0.85% NaCl (Glutamax™), non-essential amino acids, and sodium pyruvate. Cells were plated in 96-well plates at 30,000 cells/well and allowed to attach overnight at 37° C./5% CO2. Cells were treated with compounds prepared as a 10-point, 1:3 dilution series (range: 20 μM-1 nM), with a final DMSO concentration of 0.5%. After 1 hour incubation, cells were fixed in 3.7% formaldehyde in Dulbecco's phosphate-buffered saline (“dPBS”) at room temperature for 20 minutes. Cells were then washed with dPBS and permeabilized in 100% MeOH at room temperature for 10 minutes. Following permeabilization, cells were washed in dPBS and incubated in LI-COR Blocking Buffer (LI-COR Biosciences, Cat #927-40000) for 1 hour or longer. Plates were then incubated with an antibody specific for the MEK-dependent ERK1/2 phosphorylation sites, threonine 202 and tyrosine 204 (Cell Signaling Technologies; Cat #9101), downstream of SHP2 in the MAP kinase signal transduction pathway, as well as GAPDH (Millipore; Cat #MAB374). pErk1/2 (Thr202/Tyr204) antibody was diluted in LI-COR blocking buffer containing 0.05% polysorbate-20 (Tween-20) at 1:250; GAPDH was diluted at 1:2,500. The plates were incubated overnight at 4° C. After washing with PBS/0.05% Tween-20, the cells were incubated with fluorescently-labeled secondary antibodies (Anti-rabbit-Alexa Flour680, Invitrogen Cat #A21109; Anti-mouse-IRDye800CW, Li-cor Bioscieces Cat #926-32210, both at 1:1000 dilution) for 1 hour. Cells were then washed, as above, and analyzed for fluorescence at both 680 nm and 800 nm wavelengths using the Aerius Infrared Imaging System (LI-COR Biosciences, Model 9250). Phosphorylated Erk1/2 ([…]) signal was normalized to GAPDH signal for each well. IC50 values were calculated from the normalized values using a 4-parameter fit in BioAssay software. The reported IC50 in Table 2 may be from a single assay or the mean of multiple assays.

[2] = KYSE-520, KYSE520 cells, 1 hour incubation, pERK signal normalized to GAPDH, single assay or mean of multiple assays, read-out: Biological Example 2 IC50
[3] = KYSE-520, 1 h, read-out: Biological Example 2 IC50 (nM)

Row | Compound | IC50 (full-length SHP2) [nM] | IC50 [1, 2] [nM] | IC50 [1, 3] [nM]
1 | C[C@@H]1OCC2(CCN(c3ncc(Sc4ccnc(N)c4Cl)nn3)CC2)[C@@H]1N [Example 1, (3S,4S)-8-(6-((2-amino-3-chloropyridin-4-yl)thio)-1,2,4-triazin-3-yl)-3-methyl-2-oxa-8-azaspiro[4.5]decan-4-amine] | 59 | 55 | –
2 | C[C@@H]1OCC2(CCN(c3ncc(-c4cccc(Cl)c4Cl)nn3)CC2)[C@@H]1N [Example 2, (3S,4S)-8-(6-(2,3-dichlorophenyl)-1,2,4-triazin-3-yl)-3-methyl-2-oxa-8-azaspiro[4.5]decan-4-amine] | 76 | 2780 | –
3 | Nc1nccc(Sc2cnc(N3[C@H]4CC[C@H]3CC(N)C4)nn2)c1Cl (stereo partly drawn) [Example 3, (1R,3s,5S)-8-(6-((2-amino-3-chloropyridin-4-yl)thio)-1,2,4-triazin-3-yl)-8-azabicyclo[3.2.1]octan-3-amine] | 626 | 1290 | –
4 | Cc1nc(N2CCC3(CC2)CO[C@@H](C)[C@H]3N)nnc1Sc1ccnc(N)c1Cl [Example 4, (3S,4S)-8-(6-((2-amino-3-chloropyridin-4-yl)thio)-5-methyl-1,2,4-triazin-3-yl)-3-methyl-2-oxa-8-azaspiro[4.5]decan-4-amine] | 114 | 519 | –
5 | Cc1nc(N2CCC3(CC2)CO[C@@H](C)[C@H]3N)nnc1-c1cccc(Cl)c1Cl [Example 5, (3S,4S)-8-(6-(2,3-dichlorophenyl)-5-methyl-1,2,4-triazin-3-yl)-3-methyl-2-oxa-8-azaspiro[4.5]decan-4-amine] | 28 | 337 | –
6 | Nc1nccc(Sc2cnc(N3CCC4(CC3)Cc3ccccc3[C@H]4N)nn2)c1Cl [Example 6, (S)-1′-(6-((2-amino-3-chloropyridin-4-yl)thio)-1,2,4-triazin-3-yl)-1,3-dihydrospiro[indene-2,4′-piperidin]-1-amine] | – | – | 2
7 | C[C@@H]1OCC2(CCN(c3ncc(Sc4cccc(Cl)c4Cl)nn3)CC2)[C@@H]1N [Example 7, (3S,4S)-8-(6-((2,3-dichlorophenyl)thio)-1,2,4-triazin-3-yl)-3-methyl-2-oxa-8-azaspiro[4.5]decan-4-amine] | 17 | 89 | –
8 | Nc1nccc(Sc2cnc(N3CCC4(CC3)Cc3ccccc3[C@@H]4N)nn2)c1Cl [Example 20, (R)-1′-(6-((2-amino-3-chloropyridin-4-yl)thio)-1,2,4-triazin-3-yl)-1,3-dihydrospiro[indene-2,4′-piperidin]-1-amine] | – | – | 206
9 | [2H][C@@]1(N)c2ccccc2CC12CCN(c1ncc(Sc3ccnc(N)c3Cl)nn1)CC2 [Example 74, (S)-1′-(6-((2-amino-3-chloropyridin-4-yl)thio)-1,2,4-triazin-3-yl)-1,3-dihydrospiro[indene-2,4′-piperidin]-1-d-1-amine] | – | – | 1
10 | [2H][C@]1(N)c2ccccc2CC12CCN(c1ncc(Sc3ccnc(N)c3Cl)nn1)CC2 [Example 75, (R)-1′-(6-((2-amino-3-chloropyridin-4-yl)thio)-1,2,4-triazin-3-yl)-1,3-dihydrospiro[indene-2,4′-piperidin]-1-d-1-amine] | – | – | 100

Further lines, with some results ahead:

Row | IC50 (full-length SHP2) [nM] | Compound | IC50 [1, 2] [nM] | IC50 [1, 3] [nM]
11 | 79 | CNc1nccc(Sc2cnc(N3CCC4(CC3)Cc3cc(C#N)ccc3[C@H]4N)nn2)c1Cl (single isomer, unassigned) [Example 41] | 19 | –
12 | 209 | CNc1nccc(Sc2cnc(N3CCC4(CC3)Cc3cc(C#N)ccc3[C@@H]4N)nn2)c1Cl (single isomer, unassigned) [Example 42] | 813 | –
13 | 142 | COc1cnc2c(c1)[C@H](N)C1(CCN(c3ncc(Sc4ccnc(N)c4Cl)nn3)CC1)C2 (single isomer, unassigned) [Example 43] | 509 | –
14 | 37 | COc1cnc2c(c1)[C@@H](N)C1(CCN(c3ncc(Sc4ccnc(N)c4Cl)nn3)CC1)C2 (single isomer, unassigned) [Example 44] | 4 | –
15 | 69 | C[C@@H]1OCC2(CCN(c3ncc(Sc4ccnc5[nH]ccc45)nn3)CC2)[C@@H]1N [Example 8, (3S,4S)-8-(6-((1H-pyrrolo[2,3-6]pyridin-4-yl)thio)-1,2,4-triazin-3-yl)-3-methyl-2-oxa-8-azaspiro[4.5]decan-4-amine] | 48 | –
16 | 7950 | N[C@@H]1c2ccccc2CC12CCN(c1ncc(N3CCc4cnccc43)nn1)CC2 [Example 15, (S)-1′-(6-(2,3-dihydro-1H-pyrrolo[3,2-c]pyridin-1-yl)-1,2,4-triazin-3-yl)-1,3-dihydrospiro[indene-2,4′-piperidin]-1-amine] | – | –
17 | 11100 | C[C@@H]1OCC2(CCN(c3ncc(Sc4ccnc(N)c4F)nn3)CC2)[C@@H]1N [Example 21, (3S,4S)-8-(6-((2-amino-3-fluoropyridin-4-yl)thio)-1,2,4-triazin-3-yl)-3-methyl-2-oxa-8-azaspiro[4.5]decan-4-amine] | – | –
18 | 8 | N[C@@H]1c2ccccc2CC12CCN(c1ncc([Se]c3ccccc3)nn1)CC2 [Example 40, (S)-1′-(6-(phenylselanyl)-1,2,4-triazin-3-yl)-1,3-dihydrospiro[indene-2,4′-piperidin]-1-amine] | – | –
19 | 1370 | C[C@@H]1OCC2(CCN(c3ncc(Sc4ccc(N)nc4C(F)(F)F)nn3)CC2)[C@@H]1N [Example 56, (3S,4S)-8-(6-((6-amino-2-(trifluoromethyl)pyridin-3-yl)thio)-1,2,4-triazin-3-yl)-3-methyl-2-oxa-8-azaspiro[4.5]decan-4-amine] | – | –
20 | 33 | N[C@@H]1c2ccccc2CC12CCN(c1ncc(Sc3cnc4ncccn34)nn1)CC2 [Example 68, (S)-1′-(6-(imidazo[1,2-a]pyrimidin-3-ylthio)-1,2,4-triazin-3-yl)-1,3-dihydrospiro[indene-2,4′-piperidin]-1-amine] | – | –
21 | 16400 | N[C@@H]1c2ccccc2CC12CCN(c1ncc(Oc3cnc4[nH]ccc4c3)nn1)CC2 [Example 72, (S)-1′-(6-((1H-pyrrolo[2,3-b]pyridin-5-yl)oxy)-1,2,4-triazin-3-yl)-1,3-dihydrospiro[indene-2,4′-piperidin]-1-amine] | – | –
22 | 15000 | Nc1nccc(Sc2cnc(N3C4CCC3CC3(Cc5ccccc5[C@H]3N)C4)nn2)c1Cl (stereo partly drawn) [Example 78, (1′S)-8-(6-((2-amino-3-chloropyridin-4-yl)thio)-1,2,4-triazin-3-yl)-1′,3′-dihydro-8-azaspiro[bicyclo[3.2.1]octane-3,2′-inden]-1′-amine] | – | –
